Assay results published in US7763598B2, “1α-hydroxy-2-(3′-hydroxypropylidene)-19-nor-vitamin D compounds with a 1,1-dimethylpropyl side chain” (Wisconsin Alumni Research Foundation, priority 2006, dated 2010).

Columns and labels:
[1] = Bone calcium mobilization (serum calcium) in vitamin D-deficient rats; format: in vivo, rat
Procedure: (§1) Male, weanling Sprague-Dawley rats were placed on Diet 11 (0.47% Ca) diet +AEK for one week followed by Diet 11 (0.02% Ca) +AEK for 3 weeks. The rats were then switched to a diet containing 0.47% Ca for one week followed by two weeks on a diet containing 0.02% Ca. Dose administration began during the last week on 0.02% calcium diet. Four consecutive ip doses were given approximately 24 hours apart. Twenty-four hours after the last dose, blood was collected from the severed neck and the concentration of serum calcium determined as a measure of bone calcium mobilization. The first 10 cm of the intestine was also collected for intestinal calcium transport analysis using the everted gut sac method.

[2] = tested on: 24-hydroxylase (24Ohase) gene promoter; assay: In vitro transcription assay (luciferase reporter in ROS 17/2.8 bone cells); format: cell-based; settings: FIG. 3; for EC50: ROS 17/2.8 cells, 24Ohase promoter-luciferase, 16 h, read-out: EC50, transcriptional activity in bone cells
Procedure: Transcription activity was measured in ROS 17/2.8 (bone) cells that were stably transfected with a 24-hydroxylase (24Ohase) gene promoter upstream of a luciferase reporter gene (Arbour et al., 1998). Cells were given a range of doses. Sixteen hours after dosing the cells were harvested and luciferase activities were measured using a luminometer.
RLU=Relative Luciferase Units.

[3] = Intestinal calcium transport (everted gut sac) in vitamin D-deficient rats; format: in vivo, rat; settings: for Intestinal calcium transport: everted gut sac, vitamin D-deficient rats, FIG. 5
Procedure: as §1

[4] = tested on: Human promyelocytic leukemia (HL60) cells; assay: HL-60 differentiation (nitro blue tetrazolium reduction); format: cell-based; settings: FIG. 2; for EC50: HL60 cells, 4 days, NBT reduction
Procedure: The study drugs were dissolved in ethanol and the concentrations determined using UV spectrophotometry. Serial dilutions were prepared so that a range of drug concentrations could be tested without changing the final concentration of ethanol (≦0.2%) present in the cell cultures.
Human promyelocytic leukemia (HL60) cells were grown in RPMI-1640 medium containing 10% fetal bovine serum. The cells were incubated at 37° C. in the presence of 5% CO2.
HL60 cells were plated at 1.2×10^5 cells/ml. Eighteen hours after plating, cells in duplicate were treated with drug. Four days later, the cells were harvested and a nitro blue tetrazolium reduction assay was performed (Collins et al., 1979; J. Exp. Med. 149:969-974). The percentage of differentiated cells was determined by counting a total of 200 cells and recording the number that contained intracellular black-blue formazan deposits. Verification of differentiation to monocytic cells was determined by measuring phagocytic activity (data not shown).

[5] = molecular target: T1, full-length recombinant rat vitamin D receptor (Rattus norvegicus, UniProt P13053); assay: Vitamin D receptor binding (competition with [3H]-1,25(OH)2D3); settings: full-length recombinant rat VDR; FIG. 1
T1 construct: Full-length recombinant rat receptor was expressed in E. coli; histidine tag (C); made in house; host or cells: E. coli BL21 (DE3) Codon Plus RIL
T1 sequence (P13053 1-423): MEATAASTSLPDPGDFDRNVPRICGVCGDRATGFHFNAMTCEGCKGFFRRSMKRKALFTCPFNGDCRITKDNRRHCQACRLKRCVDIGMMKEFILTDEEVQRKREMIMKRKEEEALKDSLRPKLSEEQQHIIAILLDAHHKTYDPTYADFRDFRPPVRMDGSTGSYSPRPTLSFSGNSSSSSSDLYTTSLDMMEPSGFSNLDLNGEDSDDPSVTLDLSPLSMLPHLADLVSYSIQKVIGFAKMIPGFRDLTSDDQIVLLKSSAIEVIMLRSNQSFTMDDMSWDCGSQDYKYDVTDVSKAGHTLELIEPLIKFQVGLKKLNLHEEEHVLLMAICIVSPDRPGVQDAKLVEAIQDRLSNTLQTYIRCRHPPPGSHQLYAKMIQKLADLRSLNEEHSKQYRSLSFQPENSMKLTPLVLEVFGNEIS
Procedure: Full-length recombinant rat receptor was expressed in E. coli BL21 (DE3) Codon Plus RIL cells and purified to homogeneity using two different column chromatography systems. The first system was a nickel affinity resin that utilizes the C-terminal histidine tag on this protein. The protein that was eluted from this resin was further purified using ion exchange chromatography (S-Sepharose Fast Flow). Aliquots of the purified protein were quick frozen in liquid nitrogen and stored at −80° C. until use. For use in binding assays, the protein was diluted in TEDK50 (50 mM Tris, 1.5 mM EDTA, pH7.4, 5 mM DTT, 150 mM KCl) with 0.1% Chaps detergent. The receptor protein and ligand concentration were optimized such that no more than 20% of the added radiolabeled ligand was bound to the receptor.
Radiolabeled and unlabeled ligands were added to 100 mcl of the diluted protein at a final ethanol concentration of ≦10%, mixed and incubated overnight on ice to reach binding equilibrium. The following day, 100 mcl of hydroxylapatite slurry (50%) was added to each tube and mixed at 10-minute intervals for 30 minutes. […] After the final wash, the pellets were transferred to scintillation vials containing 4 ml of Biosafe II scintillation cocktail, mixed and placed in a scintillation counter. Total binding was determined from the tubes containing only radiolabeled ligand.

| Structure (SMILES) | Serum calcium levels (bone calcium mobilization) ([1]; at the dosage tested, vitamin D-deficient rats on low calcium diet (0.02%), FIG. 4) | EC50 [2] [nM] | Intestinal calcium transport ([3]; 260 pmol/day) | EC50 [4] [nM] | Bone calcium mobilization (serum calcium) ([1]; 260 pmol/day ip for 4 consecutive days, vitamin D-deficient rats on low calcium diet (0.02%), FIG. 4) | Bone calcium mobilization (serum calcium) ([1]; 2340 pmol/day ip for 4 consecutive days, vitamin D-deficient rats on low calcium diet (0.02%), FIG. 4) | Bone calcium mobilization activity compared to 1,25(OH)2D3 (in words) ([1]; FIG. 4, overall) | Transcriptional activity in bone cells compared to 1α,25-dihydroxyvitamin D3 (in words) [2] | Intestinal calcium transport ([3]; 2340 pmol/day) | Stimulating intestinal calcium transport compared to 1,25(OH)2D3 (in words) ([3]; FIG. 5, overall) | Binding to vitamin D receptor compared to 1,25-(OH)2D3 (in words) [5] | Ki [5] [nM] | HL-60 cell differentiation potency compared to 1,25(OH)2D3 (in words) [4] | EC50 ([4]; Homo sapiens, HL-60, 96 h) [nM] |
| --- | --- | --- | --- | --- | --- | --- | --- | --- | --- | --- | --- | --- | --- | --- |
| C=C1/C(=C\C=C2/CCC[C@]3(C)[C@@H]([C@H](C)CCCC(C)(C)O)CC[C@@H]23)C[C@@H](O)C[C@@H]1O [1,25(OH)2D3, 1α,25-dihydroxyvitamin D3, reference compound] | increased serum calcium levels | 0.2 | promotes a significant increase | 20 |  |  |  |  |  |  |  |  |  |  |
| CCC(C)(C)C1CCC2C(=CC=C3CC(O)C(=CCCO)C(O)C3)CCCC21C (stereo not drawn) [20DC, 1α-hydroxy-2-[3′-hydroxypropylidene]-20-methyl-19,24,25,26,27-pentanorvitamin D3] |  | 2 | does not promote intestinal calcium transport |  | did not result in mobilization of bone calcium | without any substantial effect | very little bone calcium mobilization activity | about the same transcriptional activity | does not promote intestinal calcium transport | very little activity | bound equally well | 0.08 | about as potent as 1,25(OH)2D3 | 50 |
